Experimental findings from US10647679B2, “N-methyl-D-aspartate receptor (NMDAR) potentiators, pharmaceutical compositions, and uses related thereto” (Emory University, priority 2015, dated 2020) are described below.

Assay type in all cases: cell-based
Test [1] deals with T1, recombinant rat GluN1/GluN2D (Rattus norvegicus, UniProt Q62645).
T1 construct: expressed in transfected cells; host or cells: Xenopus laevis oocytes (Ecocyte) injected with in vitro transcribed cRNA
The test is described as follows: Two-electrode voltage-clamp (TEVC) recordings in Xenopus laevis oocytes, GluN1/GluN2D. As to conditions: for I10 μM/Icontrol (mean ± SEM, %) GluN2D: 10 μM compound, Table 3; for I30 μM/Icontrol (mean ± SEM, %) GluN2D: 30 μM compound, Tables 5-7. The protocol:
(§1) Data are from between 3-26 oocytes from 2-5 frogs for each compound and receptor tested.
(§2) Two-electrode voltage-clamp recordings were performed in Xenopus laevis oocytes (Ecocyte) expressing recombinant rat GluN1/GluN2A, GluN1/GluN2B, GluN1/GluN2C, GluN1/GluN2D. cRNA was transcribed in vitro (Ambion), diluted with nuclease free water, and injected at a ratio of 1:2 GluN1:GluN2 (5-10 ng total cRNA). The oocytes were kept in Barth's solution comprised of (in mM) 88 NaCl, 5 Tris-HCl, 2.4 NaHCO3, 1 KCl, 0.84 MgSO4, 0.41 CaCl2, and 0.33 Ca(NO3)2 at pH 7.4 at 15-17° C. for two to five days before experiments. Oocytes were placed into a perfusion chamber and continually washed with recording solution containing (in mM) 90 NaCl, 1.0 KCl, 0.5 BaCl2, 0.005 EDTA, and 10 HEPES at pH 7.4 (23° C.). Voltage clamp recordings were conducted at a holding potential of −40 mV. All compounds were made as 20 mM stock solutions in DMSO and dissolved to reach the final concentration in recording solution. Final DMSO content was 0.05-0.5% (vol/vol). Some oocytes expressing GluN1/GluN2A were pretreated with […] BAPTA-AM for 10 minutes or injected with […] of 2 mM K-BAPTA to prevent gradual run-up of the current response.

Test [2] has as its target T2, recombinant rat GluN1/GluN2D (Rattus norvegicus, UniProt P35439+Q62645).
T2 construct: expressed in transfected cells; host or cells: Xenopus laevis oocytes (Ecocyte) injected with in vitro transcribed cRNA
The test is described as above. The protocol: as §1, §2

Test [3] concerns the target T3, recombinant rat GluN1/GluN2C (Rattus norvegicus, UniProt Q00961).
T3 construct: expressed in transfected cells; host or cells: Xenopus laevis oocytes (Ecocyte) injected with in vitro transcribed cRNA
In words: Two-electrode voltage-clamp (TEVC) recordings in Xenopus laevis oocytes, GluN1/GluN2C. As to conditions: for I10 μM/Icontrol (mean ± SEM, %) GluN2C: 10 μM compound, Table 3; for I30 μM/Icontrol (mean ± SEM, %) GluN2C: 30 μM compound, Tables 5-7. As for the experimental part: as §1, §2

Test [4] concerns the target T4, recombinant rat GluN1/GluN2C (Rattus norvegicus, UniProt P35439+Q00961).
T4 construct: expressed in transfected cells; host or cells: Xenopus laevis oocytes (Ecocyte) injected with in vitro transcribed cRNA
Described as above. As to conditions: for EC50: fitted when potentiation at 30 μM exceeded 120%, Tables 3, 5-7, read-out: EC50 (max.) (μM %) GluN2C: fitted EC50. As for the experimental part:
as §1, §2

Test [5] addresses T5, recombinant rat GluN1/GluN2B (Rattus norvegicus, UniProt Q00960).
T5 construct: expressed in transfected cells; host or cells: Xenopus laevis oocytes (Ecocyte) injected with in vitro transcribed cRNA
In words: Two-electrode voltage-clamp (TEVC) recordings in Xenopus laevis oocytes, GluN1/GluN2B. As to conditions: for I10 μM/Icontrol (mean ± SEM, %) GluN2B: 10 μM compound, Table 3; for I30 μM/Icontrol (mean ± SEM, %) GluN2B: 30 μM compound, Tables 5-7. As for the experimental part:
as §1, §2

Test [6] has as its target T6, recombinant rat GluN1/GluN2B (Rattus norvegicus, UniProt P35439+Q00960).
T6 construct: expressed in transfected cells; host or cells: Xenopus laevis oocytes (Ecocyte) injected with in vitro transcribed cRNA
Described as above. As to conditions: for EC50: fitted when potentiation at 30 μM exceeded 120%, Tables 3, 5-7, read-out: EC50 (max.) (μM %) GluN2B: fitted EC50. The protocol:
as §1, §2

Test [7] has as its target T7, recombinant rat GluN1/GluN2A (Rattus norvegicus, UniProt Q00959).
T7 construct: expressed in transfected cells; host or cells: Xenopus laevis oocytes (Ecocyte) injected with in vitro transcribed cRNA
In words: Two-electrode voltage-clamp (TEVC) recordings in Xenopus laevis oocytes, GluN1/GluN2A. As to conditions: maximum potentiation, response without modulator = 100%. The protocol: as §2
(Two-electrode voltage clamp is typically applied to oocytes expressing channels or transporters.)

Setting [8] is: fitted when potentiation at 30 μM exceeded 120%, Tables 3, 5-7, read-out: EC50 (max.) (μM %) GluN2D: fitted EC50.
The mark [9] stands for this setting: percentage of the initial glutamate (100 μM) and glycine (30 μM) current, read-out: EC50 (max.) (μM %) GluN2D: fitted maximum response.
[10] abbreviates: maximum potentiation, response without modulator = 100%, read-out: GluN2C EC50 (μM)/Max %: Max %.
[11] abbreviates: percentage of the initial glutamate (100 μM) and glycine (30 μM) current, read-out: EC50 (max.) (μM %) GluN2C: fitted maximum response.
The mark [12] stands for this setting: maximum potentiation, response without modulator = 100%, read-out: GluN2B EC50 (μM)/Max %: Max %.
The mark [13] stands for this setting: percentage of the initial glutamate (100 μM) and glycine (30 μM) current, read-out: EC50 (max.) (μM %) GluN2B: fitted maximum response.
[14] abbreviates: maximum potentiation, response without modulator = 100%, read-out: GluN2D EC50 (μM)/Max %: Max %.
Where [15] appears, read: maximum potentiation, response without modulator = 100%.

Like-named read-outs stand apart in the source and are kept apart here. Where only a bound is given, the exact number is not on record here.

T7 sequence (Q00959 23-1464, other chains not shown): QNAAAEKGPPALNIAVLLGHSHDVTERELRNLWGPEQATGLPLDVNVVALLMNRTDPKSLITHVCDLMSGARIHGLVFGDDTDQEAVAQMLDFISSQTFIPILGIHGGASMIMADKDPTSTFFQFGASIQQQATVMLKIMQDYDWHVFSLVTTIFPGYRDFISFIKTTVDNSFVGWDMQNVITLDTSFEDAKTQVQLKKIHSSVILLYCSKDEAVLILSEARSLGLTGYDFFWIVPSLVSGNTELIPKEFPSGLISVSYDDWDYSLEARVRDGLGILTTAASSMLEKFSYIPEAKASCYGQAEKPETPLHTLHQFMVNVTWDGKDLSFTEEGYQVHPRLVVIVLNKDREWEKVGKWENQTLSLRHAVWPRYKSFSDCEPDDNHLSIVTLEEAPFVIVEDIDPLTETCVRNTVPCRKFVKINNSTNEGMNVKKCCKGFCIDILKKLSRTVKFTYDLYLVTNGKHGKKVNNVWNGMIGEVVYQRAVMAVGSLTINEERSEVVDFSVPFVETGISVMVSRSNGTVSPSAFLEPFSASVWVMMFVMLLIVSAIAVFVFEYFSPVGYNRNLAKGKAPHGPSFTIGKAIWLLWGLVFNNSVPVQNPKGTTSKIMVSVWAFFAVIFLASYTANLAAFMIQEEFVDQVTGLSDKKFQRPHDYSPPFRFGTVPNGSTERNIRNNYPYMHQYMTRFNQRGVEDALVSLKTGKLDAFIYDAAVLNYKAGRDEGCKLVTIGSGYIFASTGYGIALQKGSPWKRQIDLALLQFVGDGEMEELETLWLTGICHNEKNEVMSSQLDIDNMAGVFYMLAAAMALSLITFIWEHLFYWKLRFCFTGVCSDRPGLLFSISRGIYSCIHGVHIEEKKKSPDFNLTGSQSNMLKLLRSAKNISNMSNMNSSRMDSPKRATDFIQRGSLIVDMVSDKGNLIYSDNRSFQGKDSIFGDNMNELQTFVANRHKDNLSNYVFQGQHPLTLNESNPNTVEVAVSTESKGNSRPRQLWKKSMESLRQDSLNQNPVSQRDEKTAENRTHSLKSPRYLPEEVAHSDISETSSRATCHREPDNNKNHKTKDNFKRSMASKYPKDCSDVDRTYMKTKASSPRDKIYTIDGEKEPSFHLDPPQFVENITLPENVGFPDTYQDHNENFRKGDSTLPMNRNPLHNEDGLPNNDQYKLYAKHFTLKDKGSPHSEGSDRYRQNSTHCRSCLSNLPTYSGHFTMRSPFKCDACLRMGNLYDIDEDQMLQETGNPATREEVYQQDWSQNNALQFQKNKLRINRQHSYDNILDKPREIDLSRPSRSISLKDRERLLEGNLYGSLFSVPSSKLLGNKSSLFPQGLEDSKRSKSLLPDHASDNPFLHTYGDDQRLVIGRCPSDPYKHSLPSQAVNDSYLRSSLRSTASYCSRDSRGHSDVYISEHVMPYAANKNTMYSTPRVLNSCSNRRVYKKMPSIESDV
T3 sequence (Q00961 20-1237, other chains not shown): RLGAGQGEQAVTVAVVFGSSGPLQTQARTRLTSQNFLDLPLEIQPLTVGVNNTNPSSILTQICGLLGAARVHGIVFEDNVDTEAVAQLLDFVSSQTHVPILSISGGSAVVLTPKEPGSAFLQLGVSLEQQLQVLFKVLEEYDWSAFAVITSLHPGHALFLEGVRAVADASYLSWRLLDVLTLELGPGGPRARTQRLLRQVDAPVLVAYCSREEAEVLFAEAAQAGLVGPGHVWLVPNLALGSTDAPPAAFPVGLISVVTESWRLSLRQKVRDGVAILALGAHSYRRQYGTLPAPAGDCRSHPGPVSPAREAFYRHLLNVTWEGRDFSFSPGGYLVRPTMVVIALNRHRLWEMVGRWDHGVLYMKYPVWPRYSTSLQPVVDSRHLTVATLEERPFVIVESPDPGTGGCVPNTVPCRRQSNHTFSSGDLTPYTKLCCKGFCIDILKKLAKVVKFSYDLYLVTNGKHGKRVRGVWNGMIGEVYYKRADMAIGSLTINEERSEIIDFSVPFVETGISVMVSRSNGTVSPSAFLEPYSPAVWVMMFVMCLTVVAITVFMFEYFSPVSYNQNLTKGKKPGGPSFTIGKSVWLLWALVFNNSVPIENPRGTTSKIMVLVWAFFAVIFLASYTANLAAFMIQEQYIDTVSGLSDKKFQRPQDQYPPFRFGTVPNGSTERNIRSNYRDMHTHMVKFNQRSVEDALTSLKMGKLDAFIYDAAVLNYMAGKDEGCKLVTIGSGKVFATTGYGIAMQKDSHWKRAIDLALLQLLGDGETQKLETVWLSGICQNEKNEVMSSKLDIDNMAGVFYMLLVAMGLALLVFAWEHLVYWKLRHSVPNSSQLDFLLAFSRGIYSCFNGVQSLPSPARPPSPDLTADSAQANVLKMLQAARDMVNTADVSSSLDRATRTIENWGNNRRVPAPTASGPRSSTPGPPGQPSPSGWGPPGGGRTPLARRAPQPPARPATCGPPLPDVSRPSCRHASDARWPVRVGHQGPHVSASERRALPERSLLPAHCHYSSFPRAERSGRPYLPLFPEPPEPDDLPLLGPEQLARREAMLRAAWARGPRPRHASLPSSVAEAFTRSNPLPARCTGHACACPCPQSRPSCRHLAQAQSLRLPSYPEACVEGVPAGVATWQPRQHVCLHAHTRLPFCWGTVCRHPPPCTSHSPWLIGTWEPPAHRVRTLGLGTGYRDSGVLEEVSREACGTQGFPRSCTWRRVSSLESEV
T4 sequence (Q00961 20-1237, other chains not shown): as above
T2 sequence (Q62645 28-1323, other chains not shown): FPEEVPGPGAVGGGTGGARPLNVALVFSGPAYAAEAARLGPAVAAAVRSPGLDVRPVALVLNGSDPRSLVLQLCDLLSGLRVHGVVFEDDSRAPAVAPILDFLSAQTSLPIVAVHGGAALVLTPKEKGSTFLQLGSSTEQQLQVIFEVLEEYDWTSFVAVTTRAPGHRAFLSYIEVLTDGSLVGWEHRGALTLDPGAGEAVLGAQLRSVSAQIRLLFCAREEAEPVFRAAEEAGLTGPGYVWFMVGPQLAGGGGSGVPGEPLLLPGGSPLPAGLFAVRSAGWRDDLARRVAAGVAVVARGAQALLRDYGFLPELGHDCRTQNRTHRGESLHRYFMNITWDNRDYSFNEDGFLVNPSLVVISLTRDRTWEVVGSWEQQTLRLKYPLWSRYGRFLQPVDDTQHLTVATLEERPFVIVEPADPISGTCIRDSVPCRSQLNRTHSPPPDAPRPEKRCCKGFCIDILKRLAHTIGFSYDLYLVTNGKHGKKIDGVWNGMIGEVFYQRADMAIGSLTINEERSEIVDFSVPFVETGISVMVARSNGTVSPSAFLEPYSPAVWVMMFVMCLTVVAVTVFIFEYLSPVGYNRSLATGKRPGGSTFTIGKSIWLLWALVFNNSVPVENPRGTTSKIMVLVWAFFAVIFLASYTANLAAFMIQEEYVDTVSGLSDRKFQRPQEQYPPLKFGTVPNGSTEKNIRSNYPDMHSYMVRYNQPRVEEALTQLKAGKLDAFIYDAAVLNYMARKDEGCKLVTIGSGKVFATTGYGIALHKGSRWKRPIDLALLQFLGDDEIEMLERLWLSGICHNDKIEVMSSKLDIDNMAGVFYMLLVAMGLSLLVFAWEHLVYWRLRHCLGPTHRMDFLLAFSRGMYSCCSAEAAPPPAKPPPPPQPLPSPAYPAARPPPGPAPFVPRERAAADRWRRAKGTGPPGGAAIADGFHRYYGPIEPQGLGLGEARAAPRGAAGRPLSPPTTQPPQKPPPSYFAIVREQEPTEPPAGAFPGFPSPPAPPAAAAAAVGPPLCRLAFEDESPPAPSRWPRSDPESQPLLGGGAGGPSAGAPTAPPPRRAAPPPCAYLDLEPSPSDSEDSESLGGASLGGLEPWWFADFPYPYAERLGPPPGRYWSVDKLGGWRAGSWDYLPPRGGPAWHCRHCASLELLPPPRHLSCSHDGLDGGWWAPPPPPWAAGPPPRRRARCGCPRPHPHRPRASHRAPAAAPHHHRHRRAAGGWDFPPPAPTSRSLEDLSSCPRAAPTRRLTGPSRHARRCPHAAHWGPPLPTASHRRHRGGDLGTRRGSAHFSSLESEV
T1 sequence (Q62645 28-1323, other chains not shown): as above

In general, EC50 refers to the midpoint of the concentration-response curve. Consider `COc1ccc(OCC2c3ccc(OC(C)C)cc3CCN2C(=O)c2cccc(Cl)c2)cc1` (centres unmarked) [1180-55], for which, in test [1], the “I10 μM/Icontrol (mean ± SEM, %) GluN2D” value is on record as 281%. Also, the EC50 in test [2] (EC50 & Max Effect: 2D (μM)) was determined as 2.9 µM; in test [2] (setting [8]), 4.3 µM; in test [6], 5 µM. The Emax in test [2] (setting [9]) worked out at 323%; in test [4] (setting [10]), 266%; in test [4] (setting [11]), 250%; in test [4] (read-out: EC50 & Max Effect: 2C Max (%)), 266%; in test [6] (setting [12]), 193%; in test [6] (setting [13]) it was 215%. Also, in test [3], the “I10 μM/Icontrol (mean ± SEM, %) GluN2C” value amounted to 231%. Further, the “I10 μM/Icontrol (mean ± SEM, %) GluN2B” value in test [5] turned out to be 191%.
With `COc1ccc(OCC2c3ccc(OC(C)C)cc3CCN2C(=O)c2cccc(F)c2)cc1` (centres unmarked) [1180-140], the Emax in test [2] (setting [14]) is 521%; in test [4] (setting [10]), 304%; in test [6] (setting [12]), 450%. In addition, the “GluN2A EC50 (μM)/Max %: Max %” value in test [7] was determined as 159%.
Consider `CCOc1ccc(OCC2c3ccc(OC(C)C)cc3CCN2C(=S)c2ccc(F)c(Cl)c2)cc1` (centres unmarked) [1180-165], for which the “GluN2D EC50 (μM)/Max %: Max %” value in test [1] (setting [15]) turned out to be 141%. In test [3] (setting [15]), the “GluN2C EC50 (μM)/Max %: Max %” value is reported as 162%. Also, the “GluN2A EC50 (μM)/Max %: Max %” value in test [7] came out at 191%. In test [5] (setting [15]), the “GluN2B EC50 (μM)/Max %: Max %” value is listed as 226%.
In the case of `COc1ccc(OCC2c3ccc(OC(C)C)cc3CCN2C(=S)c2cccc(F)c2)cc1` (centres unmarked) [1180-166], the Emax in test [2] (setting [14]) came to 200%; in test [4] (setting [10]), 233%; in test [6] (setting [12]) it was 307%. Moreover, the “GluN2A EC50 (μM)/Max %: Max %” value in test [7] is recorded as 179%.
As to `CCOc1ccc(OCC2c3ccc(OC(C)C)cc3CCN2C(=S)c2cccc(C(F)(F)F)c2)cc1` (centres unmarked) [1180-168], the “I30 μM/Icontrol (mean ± SEM, %) GluN2D” value in test [1] was found to be 126%. Also, the Emax in test [2] (setting [9]) is 128%; in test [4] (setting [10]) it was 138%; in test [4] (setting [11]) it was 141%; in test [6] (setting [12]), 171%; in test [6] (setting [13]), 179%. Moreover, the “I30 μM/Icontrol (mean ± SEM, %) GluN2C” value in test [3] is 139%. The EC50 in test [4] turned out to be 0.33 µM; in test [6], 1 µM. In test [5], the “I30 μM/Icontrol (mean ± SEM, %) GluN2B” value came to 185%.
Take `COc1ccc(OC[C@H]2c3ccc(OC(C)C)cc3CCN2C(=O)c2cccc(Cl)c2)cc1` [(R)-(+)-1180-55]: the “I10 μM/Icontrol (mean ± SEM, %) GluN2D” value in test [1] amounted to 345%. Also, the EC50 was 1.3 µM in test [2] (setting [8]) and 5 µM in test [6]. In addition, the Emax came out at 384% in test [2] (setting [9]), 342% in test [4] (setting [11]) and 167% in test [6] (setting [13]). For the same compound, the “I10 μM/Icontrol (mean ± SEM, %) GluN2C” value in test [3] stood at 323%. Further, the “I10 μM/Icontrol (mean ± SEM, %) GluN2B” value in test [5] is on record as 150%.
As to `CCOc1ccc(OC[C@H]2c3ccc(OC(C)C)cc3CCN2C(=S)c2cccc(C(F)(F)F)c2)cc1` [(R)-(+)-1180-168], in test [1], the “I30 μM/Icontrol (mean ± SEM, %) GluN2D” value turned out to be 157%. In addition, the EC50 amounted to 0.3 µM in test [2] (setting [8]), 0.24 µM in test [4] and 0.21 µM in test [6]. For the same compound, the Emax in test [2] (setting [9]) came to 160%; in test [4] (setting [11]), 182%; in test [6] (setting [13]), 173%. In test [3], the “I30 μM/Icontrol (mean ± SEM, %) GluN2C” value turned out to be 146%. In addition, the “I30 μM/Icontrol (mean ± SEM, %) GluN2B” value in test [5] turned out to be 156%.
As for `COc1ccc(OC[C@@H]2c3ccc(OC(C)C)cc3CCN2C(=O)c2cccc(Cl)c2)cc1` [(S)-(−)-1180-55], the “I10 μM/Icontrol (mean ± SEM, %) GluN2D” value in test [1] was found to be 336%. For the same compound, the concentration for a half-maximal effect (EC50) was determined as 4.5 µM in test [2] (setting [8]) and 5.2 µM in test [6]. Besides, the Emax was 350% in test [2] (setting [9]), 360% in test [4] (setting [11]) and 307% in test [6] (setting [13]). In addition, the “I10 μM/Icontrol (mean ± SEM, %) GluN2C” value in test [3] is given as 361%. Besides, the “I10 μM/Icontrol (mean ± SEM, %) GluN2B” value in test [5] amounted to 269%.
Consider `CCOc1ccc(OC[C@@H]2c3ccc(OC(C)C)cc3CCN2C(=S)c2cccc(F)c2)cc1` [(S)-(−)-1180-154], for which the “I30 μM/Icontrol (mean ± SEM, %) GluN2D” value in test [1] amounted to 185%. The EC50 in test [2] (setting [8]) is 0.47 µM; in test [4], 0.46 µM; in test [6], less than 0.5 µM. The figures for the Emax in test [2] (setting [9]), in test [4] (setting [11]) and in test [6] (setting [13]) were 190%, 163% and 213%, respectively. In test [3], the “I30 μM/Icontrol (mean ± SEM, %) GluN2C” value was found to be 153%. Moreover, the “I30 μM/Icontrol (mean ± SEM, %) GluN2B” value in test [5] is on record as 206%.
With `COc1ccc(OC[C@@H]2c3ccc(OC(C)C)cc3CCN2C(=S)c2cccc(Cl)c2)cc1` [(S)-(−)-1180-163], the “I10 μM/Icontrol (mean ± SEM, %) GluN2D” value in test [1] is recorded as 299%. Also, the EC50 is 0.5 µM in test [2] (setting [8]), 0.5 µM in test [4] and 0.28 µM in test [6]. Further, the Emax in test [2] (setting [9]) amounted to 313%; in test [4] (setting [11]), 316%; in test [6] (setting [13]), 202%. The “I10 μM/Icontrol (mean ± SEM, %) GluN2C” value in test [3] worked out at 302%. For the same compound, the “I10 μM/Icontrol (mean ± SEM, %) GluN2B” value in test [5] is on record as 203%.
